One experiment has as its system Rhino mice. Description: Epidermal thickness of Rhino mice after 3 weeks of daily topical administration (histological analysis). The experiment is classed as in vivo, mouse. The note with it: for API-Treated Epidermal Thickness (% Vehicle): 70% ethanol/30% propylene glycol, mean ± SEM. As to the method: Methods. Animals and dose administration. Rhino mice 6-8 weeks old were dosed daily via the topical route. The mice were weighed three times per week. Doses of API were adjusted weekly based on body weight. The topical formulations dosage forms were made by mixing the API with two different topical carriers. One topical carrier consisted of 70 vol % propylene glycol and 30 vol % ethanol. The other topical carrier consisted of 30 vol % propylene glycol and 70 vol % ethanol. The topical vehicle control for a given comparative example was the vehicle carrier used in the API-formulated topical dosage form. Animals were euthanized 72 hours after administration of the final topical dose, and dorsal skin was collected for histological analysis.
Measurement of epidermal thickness.
Epidermal thickness was determined by histological analysis of tissue sections. Skin was fixed overnight in 4% paraformaldehyde at 4° C. with gentle agitation. The skin was dehydrated the following day in 100% methanol. Samples were embedded in paraffin. Nine sections, each measuring 10 μm and each separated by 150 μm, were taken from each mouse and stained with hematoxylin and eosin stain. Five of the nine sections were digitally imaged (6× magnification) for analysis of the epidermal thickness using Metamorph Imaging Software (single line function).
The thickness of the epidermis adjacent to each comedone (open or healed) on each respective image of the five sections was also then measured using a Wacom Intuos 3 Graphics Tablet interfaced with the software. The average width was determined for each Rhino mouse from multiple measurements. Individual epidermal thickness average was determined from a composite of measurements taken from all 5 images. Such average for each mouse was used to calculate the treatment group mean. Results in the figures are expressed in terms of mean±standard error of the mean.
Preparation of topical formulations and dosage forms containing the various API's including 2MBis P, CAGE-3, 24R-2MD2, VitIII (17-20E), NEL, VD-03, 2MPregna, 2MP, 20R-2MBisP, 2MTrisP, FF-44, FF-55, HPBS and 13Me2. Separate concentrated ethanolic stock solutions of each API were diluted to a predetermined dose concentration using a topical carrier vehicle. Two different carrier vehicles were used. One topical carrier consisted of 70 vol % propylene glycol and 30 vol % ethanol. The other topical carrier consisted of 30 vol % propylene glycol and 70 vol % ethanol. The vehicle was thoroughly mixed with the API. The topical dosing formulation and dosage form delivered a predetermined amount of API on a per kilogram body weight basis.
A 100 μL dose was administered to the back of the mouse. An average weight of 24-30 g/mouse was assumed initially in the dose volume calculations. Dosing volumes were adjusted weekly to deliver the predetermined desired dose amount of API based on the body weight of each animal.

The test system of a further experiment is hairless C3H mouse. The note with it: topical administration to skin of hairless C3H mouse; cited from earlier work.
The test system of a further experiment is keratinocytes in culture. The conditions noted are these: cited from earlier work.
Setting [1] is: 217 nmole/kgBW/day topical, 3 weeks, 70 vol. % ethanol/30 vol. % propylene glycol.
The mark [2] stands for this setting: topical API dose 217 nmol/kg daily, 3 weeks.
Setting [3] is: 694 nmole/kgBW/day topical, 3 weeks, 70 vol. % ethanol/30 vol. % propylene glycol.
Setting [4] is: topical API dose 694 nmol/kg daily, 3 weeks.

We go through 15 molecules from patent US8143238B2, “Methods of increasing epidermal skin thickness by topical administration of a 19-nor containing vitamin D compound” (Wisconsin Alumni Research Foundation, priority 2008, dated 2012).

As for `C=C1C(O)CC(=CC=C2CCCC3(C)C2CCC3C(C)C)CC1O` (stereo not drawn) [2MP, 1α-hydroxy-2-methylene-19-nor-homopregnacalciferol], the “epidermal thickness as compared to the vehicle control (in words)” value in the experiment with Rhino mice (setting [1]) is “significant increase in epidermal thickness”. The “API-Treated Epidermal Thickness (% Vehicle)” value with Rhino mice (setting [2]) was determined as 207 ± 8 % Vehicle.

Regarding `C=C1[C@H](O)CC(=C/C=C2\CCC[C@]3(C)/C(=C(\C)CCCC(C)(C)O)CC[C@@H]23)C[C@H]1O` [Vit-III 17-20E, 2-methylene-1α,25-dihydroxy-(17E)-17(20)-dehydro-19-nor-vitamin D3], in the experiment with Rhino mice (24.1 nmole/kgBW/day topical, 3 weeks, 70 vol. % ethanol/30 vol. % propylene glycol), the “epidermal thickness as compared to the vehicle control (in words)” value is on record as “significant increase in epidermal thickness”. Besides, the “API-Treated Epidermal Thickness (% Vehicle)” value in the experiment with Rhino mice (topical API dose 24 nmol/kg daily, 3 weeks) stood at 216 ± 13 % Vehicle.

Regarding `C=C1[C@H](O)CC(=C/C=C/CC(C)(C)C[C@@H](C)CCCC(C)(C)O)C[C@H]1O` [13Me2, 13,13-dimethyl-des-C,D analog of (20S)-2-methylene-1α,25-dihydroxy-19-nor-vitamin D3], the “epidermal thickness as compared to the vehicle control (in words)” value in the experiment on Rhino mice (setting [1]) was “significant increase in epidermal thickness”. In addition, the “API-Treated Epidermal Thickness (% Vehicle)” value in the experiment on Rhino mice (setting [2]) is on record as 229 ± 12 % Vehicle.

In the case of `C=C1[C@H](O)CC(=C/C=C2\CCC[C@]3(C)[C@@H]([C@@H](C)CCCC4(O)CCCC4)CC[C@@H]23)C[C@H]1O` [CAGE-3, 19-nor-26,27-dimethylene-20(S)-2-methylene-1α,25-dihydroxyvitamin D3], the “epidermal thickness as compared to the vehicle control (in words)” value with Rhino mice (0.9 ng/day (ca. 100 picomole/kgBW/day), 0.45 ng/day from day 10, 0.22 ng/day (25 picomole/kgBW/day) from day 19, vehicle 30 vol. % ethanol/70 vol. % propylene glycol) was “increase in epidermal thickness”. Moreover, the “epidermal thickness compared to the vehicle control (in words)” value with Rhino mice (lowest dose 0.0079 nmol/kgBW daily topical, 3 weeks, 70 vol. % ethanol/30 vol. % propylene glycol) is “some increase in epidermal thickness”. The “epidermal thickness as compared to the control vehicle (in words)” value in the experiment on Rhino mice (three higher doses 0.025, 0.079 and 0.25 nmol/kgBW daily topical, 3 weeks, 70 vol. % ethanol/30 vol. % propylene glycol) is “significant increase in epidermal thickness”. Besides, the “API-Treated Epidermal Thickness (% Vehicle)” value is reported as 162 ± 11 % Vehicle with Rhino mice (topical API dose 0.025 nmol/kg daily, 3 weeks); 274 ± 14 % Vehicle with Rhino mice (topical API dose 0.079 nmol/kg daily, 3 weeks); 293 ± 8 % Vehicle in the experiment on Rhino mice (topical API dose 0.25 nmol/kg daily, 3 weeks).

Regarding `C=C1[C@H](O)CC(=C/C=C2\CCC[C@]3(C)[C@@H]([C@H](C)CCC[C@H](C)O)CC[C@@H]23)C[C@H]1O` [NEL, 2-methylene-(20R,25S)-19,26-dinor-1α,25-dihydroxyvitamin D3], the “epidermal thickness, dose dependence (in words)” value with Rhino mice (7.5 and 25 nmole/kgBW/day topical, 3 weeks, 70 vol. % ethanol/30 vol. % propylene glycol) is on record as “dose-dependent increase in epidermal thickness”. For the same molecule, the “API-Treated Epidermal Thickness (% Vehicle)” value in the experiment on Rhino mice (topical API dose 7.5 nmol/kg daily, 3 weeks) was 145 ± 4 % Vehicle; in the experiment on Rhino mice (topical API dose 25 nmol/kg daily, 3 weeks), 189 ± 11 % Vehicle.

On to `C=C1[C@H](O)CC(=C/C=C2\CCC[C@]3(C)C(CC)CCC23)C[C@H]1O` (stereo partly drawn) [2MPregna, 2-methylene-19-nor-1α-hydroxy-pregnacalciferol], for which, in the experiment with Rhino mice (setting [1]), the “epidermal thickness as compared to the vehicle control (in words)” value is reported as “significant increase in epidermal thickness”. Also, in the experiment with Rhino mice (setting [2]), the “API-Treated Epidermal Thickness (% Vehicle)” value is reported as 183 ± 8 % Vehicle.

Take `C=C1[C@H](O)CC(=C/C=C2\CCC[C@@H]3[C@@H]([C@@H](C)CCCC(C)(C)O)CC[C@@H]23)C[C@H]1O` [VD-03, 2-methylene-18,19-dinor-(20S)-1α,25-dihydroxyvitamin D3]: the “API-Treated Epidermal Thickness (% Vehicle)” value in the experiment with Rhino mice (topical API dose 0.62 nmol/kg daily, 3 weeks) is 225 ± 6 % Vehicle.

On to `C=C1[C@H](O)CC(=C/C=C2\CCC[C@]3(C)[C@@H]([C@@H](C)CCC)CC[C@@H]23)C[C@H]1O` [2MTrisP, 2-methylene-(20S)-19-nor-1α-hydroxy-trishomopregnacalciferol], for which the “epidermal thickness as compared to the vehicle control (in words)” value in the experiment on Rhino mice (setting [1]) is on record as “significant increase in epidermal thickness”. Also, the “API-Treated Epidermal Thickness (% Vehicle)” value in the experiment on Rhino mice (setting [2]) came to 221 ± 15 % Vehicle.

With `C=C1[C@H](O)CC(=C/C=C2\CCC[C@]3(C)[C@@H]([C@@H](C)CC)CC[C@@H]23)C[C@H]1O` [2MBisP, 2-methylene-19-nor-20(S)-1α-hydroxy-bishomopregnacalciferol], the “epidermal thickness as compared to the vehicle control (in words)” value in the experiment with Rhino mice (setting [1]) and in the experiment on Rhino mice (setting [3]) was “significant increase in epidermal thickness” throughout. Further, the “potency at increasing epidermal thickness relative to 20R-2MBisP” value in the experiment with Rhino mice (doses of 217 and 694 nmole/kgBW/day topical, 3 weeks) is on record as “approximately one-half log more potent”. In addition, the figures for the “API-Treated Epidermal Thickness (% Vehicle)” value in the experiment with Rhino mice (setting [2]) and in the experiment on Rhino mice (setting [4]) were 220 ± 8 % Vehicle and 231 ± 6 % Vehicle, respectively.

Take `C=C1[C@H](O)CC(=C/C=C2\CCC[C@]3(C)C([C@H](C)/C=C/[C@@H](C)C(C)(C)O)CC[C@@H]23)C[C@H]1O` (stereo partly drawn) [(24R)2MD2, 2-methylene-19-nor-(24R)-1α,25-dihydroxyvitamin D2]: the “epidermal thickness as compared to the vehicle control (in words)” value in the experiment on Rhino mice (2.33 nmole/kgBW/day topical, 3 weeks, 70 vol. % ethanol/30 vol. % propylene glycol) is recorded as “significant increase in epidermal thickness”. Besides, the “API-Treated Epidermal Thickness (% Vehicle)” value with Rhino mice (topical API dose 2.3 nmol/kg daily, 3 weeks) came out at 189 ± 13 % Vehicle.

`C=C1[C@H](O)CC(=C/C=C2\CCC[C@@]3(C)C2CCC3[C@@H](C)CC(F)F)C[C@H]1O` (stereo partly drawn) [FF-55, 2-methylene-(20S)-23,23-difluoro-1α-hydroxy-19-nor-bishomopregnancalciferol]: the “epidermal thickness as compared to the vehicle control (in words)” value with Rhino mice (setting [1]) is reported as “significant increase in epidermal thickness”. In addition, the “API-Treated Epidermal Thickness (% Vehicle)” value in the experiment with Rhino mice (setting [2]) turned out to be 225 ± 9 % Vehicle.

Turning to `CC(C)C[C@H](C)[C@H]1CC[C@H]2/C(=C/C=C3C[C@@H](O)C(=CCCO)[C@H](O)C3)CCC[C@]12C` [HPBS, 2-(3′hydroxypropyl-1′,2′-idene)-19,23,24-trinor-(20S)-1α-hydroxyvitamin D3], in the experiment with Rhino mice (217 nmole/kgBW/day for 3 days (2 mice) or 10 days (4 mice), then 122 nmole/kgBW/day, 3 weeks daily topical, 70 vol. % ethanol/30 vol. % propylene glycol), the “epidermal thickness as compared to the control vehicle (in words)” value is reported as “significant increase in epidermal thickness”. In addition, the “API-Treated Epidermal Thickness (% Vehicle)” value with Rhino mice (topical API dose 217 to 122 nmol/kg daily (dose changed on day 10), 3 weeks) was 189 ± 13 % Vehicle.

As for `C=C1[C@H](O)CC(=C/C=C2\CCC[C@]3(C)[C@@H]([C@H](C)CC)CC[C@@H]23)C[C@H]1O` [20R-2MBisP, (20R)-1α-hydroxy-2-methylene-19-nor-bishomopregnacalciferol], the “epidermal thickness as compared to the vehicle control (in words)” value was “some increase in epidermal thickness” in the experiment on Rhino mice (setting [1]) and “significant increase in epidermal thickness” in the experiment with Rhino mice (setting [3]). Also, the “API-Treated Epidermal Thickness (% Vehicle)” value in the experiment with Rhino mice (setting [2]) is recorded as 155 ± 7 % Vehicle; with Rhino mice (setting [4]), 209 ± 13 % Vehicle.

As to `C=C1/C(=C\C=C2/CCC[C@]3(C)[C@@H]([C@H](C)CCCC(C)(C)O)CC[C@@H]23)C[C@@H](O)C[C@@H]1O` [1,25(OH)2D3, 1α,25-dihydroxy-vitamin D3], in the experiment with hairless C3H mouse, the epidermal proliferation entry is “induce epidermal proliferation” and the epidermal thickness entry is listed as “increase epidermal thickness”. The proliferation of keratinocytes result with keratinocytes in culture was “inhibit the proliferation”. The “epidermal thickness as compared to the vehicle-only control (in words)” value in the experiment on Rhino mice (6 nmole/kgBW daily topical, 3 weeks, 70 vol. % ethanol/30 vol. % propylene glycol) is reported as “very modest increase in epidermal thickness”. Besides, the “API-Treated Epidermal Thickness (% Vehicle)” value with Rhino mice (topical API dose 6.0 nmol/kg daily, 3 weeks) is 118 ± 7 % Vehicle.

As for `C=C1[C@H](O)CC(=C/C=C2\CCC[C@@]3(C)C2CCC3[C@H](C)CC(F)F)C[C@H]1O` (stereo partly drawn) [FF-44, 2-methylene-(20R)-23,23-difluoro-1α-hydroxy-19-nor-bishomopregnacalciferol], the “epidermal thickness as compared to the vehicle control (in words)” value in the experiment on Rhino mice (setting [1]) is recorded as “significant increase in epidermal thickness”. Also, the “API-Treated Epidermal Thickness (% Vehicle)” value in the experiment on Rhino mice (setting [2]) worked out at 206 ± 22 % Vehicle.
